pKi: −log10 of the molar value. Values joined by “and” are separate entries in the source; they are usually repeats but may differ in a detail not shown here. Identical values can stand only once.
Experiments:
D(2) dopamine receptor = D(2) dopamine receptor (Sus scrofa, UniProt F1SM69)
[1] = target: T1, Muscarinic acetylcholine receptor M2 (Rattus norvegicus, UniProt P10980)
T1 sequence (P10980 whole entry): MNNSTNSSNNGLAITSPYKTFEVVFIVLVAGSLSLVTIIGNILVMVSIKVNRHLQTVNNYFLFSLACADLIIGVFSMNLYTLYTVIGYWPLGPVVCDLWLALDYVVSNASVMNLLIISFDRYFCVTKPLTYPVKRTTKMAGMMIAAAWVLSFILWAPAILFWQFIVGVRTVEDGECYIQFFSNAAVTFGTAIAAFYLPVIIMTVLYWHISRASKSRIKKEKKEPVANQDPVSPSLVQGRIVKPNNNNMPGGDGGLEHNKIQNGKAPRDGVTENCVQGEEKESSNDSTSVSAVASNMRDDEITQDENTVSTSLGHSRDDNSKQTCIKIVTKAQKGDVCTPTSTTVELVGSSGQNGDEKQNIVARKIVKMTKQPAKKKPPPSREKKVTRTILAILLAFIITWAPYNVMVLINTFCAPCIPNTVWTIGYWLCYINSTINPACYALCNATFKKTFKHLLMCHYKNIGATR

[2] = target: Beta-2 adrenergic receptor (Rattus norvegicus, UniProt P10608)
[3] = target: T2, Alpha-1B adrenergic receptor (Rattus norvegicus, UniProt P15823)
T2 sequence (P15823 whole entry): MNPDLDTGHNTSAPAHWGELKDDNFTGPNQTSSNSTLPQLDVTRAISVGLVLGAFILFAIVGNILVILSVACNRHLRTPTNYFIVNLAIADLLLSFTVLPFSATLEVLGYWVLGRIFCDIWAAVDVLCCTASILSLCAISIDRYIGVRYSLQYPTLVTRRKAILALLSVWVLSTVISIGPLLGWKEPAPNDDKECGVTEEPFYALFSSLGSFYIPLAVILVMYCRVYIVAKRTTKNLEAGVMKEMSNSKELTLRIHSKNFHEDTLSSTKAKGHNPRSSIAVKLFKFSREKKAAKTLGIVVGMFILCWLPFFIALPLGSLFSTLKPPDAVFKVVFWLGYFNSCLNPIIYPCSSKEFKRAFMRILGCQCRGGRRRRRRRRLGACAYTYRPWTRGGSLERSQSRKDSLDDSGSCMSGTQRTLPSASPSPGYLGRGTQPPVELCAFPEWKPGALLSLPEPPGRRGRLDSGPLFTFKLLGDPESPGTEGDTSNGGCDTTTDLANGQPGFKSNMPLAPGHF

D(1A) dopamine receptor = D(1A) dopamine receptor (Macaca mulatta, UniProt O77680)
[4] = target: T3, Alpha-1A adrenergic receptor (Rattus norvegicus, UniProt P43140)
T3 sequence (P43140 whole entry): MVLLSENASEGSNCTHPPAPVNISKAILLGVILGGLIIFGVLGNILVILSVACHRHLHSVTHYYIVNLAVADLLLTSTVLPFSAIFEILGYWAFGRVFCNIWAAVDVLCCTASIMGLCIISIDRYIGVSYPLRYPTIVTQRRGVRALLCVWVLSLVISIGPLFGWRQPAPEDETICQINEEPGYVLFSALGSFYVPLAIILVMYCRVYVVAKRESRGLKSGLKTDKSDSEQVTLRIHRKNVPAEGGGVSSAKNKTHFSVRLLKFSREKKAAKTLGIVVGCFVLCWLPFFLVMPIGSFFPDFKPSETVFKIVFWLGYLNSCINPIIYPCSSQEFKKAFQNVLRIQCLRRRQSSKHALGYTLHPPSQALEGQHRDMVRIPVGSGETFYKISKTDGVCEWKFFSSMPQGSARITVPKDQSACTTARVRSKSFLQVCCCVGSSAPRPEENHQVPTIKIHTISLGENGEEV

[5] = target: Beta-1 adrenergic receptor (Rattus norvegicus, UniProt P18090)
[6] = target: Sigma non-opioid intracellular receptor 1 (Cavia porcellus, UniProt Q60492)
[7] = target: T4, Muscarinic acetylcholine receptor M1 (Rattus norvegicus, UniProt P08482)
T4 sequence (P08482 whole entry): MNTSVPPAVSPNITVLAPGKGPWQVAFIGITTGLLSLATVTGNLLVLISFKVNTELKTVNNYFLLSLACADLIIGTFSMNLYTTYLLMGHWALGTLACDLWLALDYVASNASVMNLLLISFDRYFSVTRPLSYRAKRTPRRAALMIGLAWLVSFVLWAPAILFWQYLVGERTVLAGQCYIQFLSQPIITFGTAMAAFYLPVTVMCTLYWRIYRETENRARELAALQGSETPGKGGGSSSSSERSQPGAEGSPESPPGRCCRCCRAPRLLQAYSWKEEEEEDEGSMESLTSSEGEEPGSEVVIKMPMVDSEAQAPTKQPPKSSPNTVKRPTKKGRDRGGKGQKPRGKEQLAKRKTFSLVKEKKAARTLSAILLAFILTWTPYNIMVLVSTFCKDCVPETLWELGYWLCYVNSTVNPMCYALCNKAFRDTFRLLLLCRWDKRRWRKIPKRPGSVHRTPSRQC

[8] = target: T5, 5-hydroxytryptamine receptor 2C (Rattus norvegicus, UniProt P08909)
T5 sequence (P08909 whole entry): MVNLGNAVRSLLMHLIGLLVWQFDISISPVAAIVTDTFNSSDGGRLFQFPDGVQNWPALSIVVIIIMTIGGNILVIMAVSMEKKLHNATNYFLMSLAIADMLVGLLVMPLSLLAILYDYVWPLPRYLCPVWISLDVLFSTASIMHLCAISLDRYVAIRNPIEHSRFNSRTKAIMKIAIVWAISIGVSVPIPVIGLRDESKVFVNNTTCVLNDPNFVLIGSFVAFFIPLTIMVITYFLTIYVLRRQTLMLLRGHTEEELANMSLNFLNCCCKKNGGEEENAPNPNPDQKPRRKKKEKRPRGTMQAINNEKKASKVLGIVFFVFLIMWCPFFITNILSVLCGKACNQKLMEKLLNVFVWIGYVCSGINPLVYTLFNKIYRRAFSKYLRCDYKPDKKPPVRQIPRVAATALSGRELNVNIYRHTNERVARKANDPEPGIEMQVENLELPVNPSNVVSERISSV

[9] = target: T6, Alpha-2A adrenergic receptor [16-465] (Rattus norvegicus, UniProt P22909)
T6 construct: 16-465
T6 sequence (P22909 whole entry): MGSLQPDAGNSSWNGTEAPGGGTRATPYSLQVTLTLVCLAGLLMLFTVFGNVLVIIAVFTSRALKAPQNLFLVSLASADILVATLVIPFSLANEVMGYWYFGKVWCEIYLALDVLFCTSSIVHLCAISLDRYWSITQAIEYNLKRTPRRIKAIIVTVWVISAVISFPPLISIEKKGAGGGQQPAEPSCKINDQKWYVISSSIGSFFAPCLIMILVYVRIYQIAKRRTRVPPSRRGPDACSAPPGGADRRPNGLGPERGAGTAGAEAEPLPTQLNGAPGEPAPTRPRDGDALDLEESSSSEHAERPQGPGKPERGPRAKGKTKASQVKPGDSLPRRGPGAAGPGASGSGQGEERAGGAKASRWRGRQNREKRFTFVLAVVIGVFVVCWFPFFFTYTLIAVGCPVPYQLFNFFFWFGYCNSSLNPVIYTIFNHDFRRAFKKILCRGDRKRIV

[10] = target: T7, 5-hydroxytryptamine receptor 3A (Rattus norvegicus, UniProt P35563)
T7 sequence (P35563 whole entry): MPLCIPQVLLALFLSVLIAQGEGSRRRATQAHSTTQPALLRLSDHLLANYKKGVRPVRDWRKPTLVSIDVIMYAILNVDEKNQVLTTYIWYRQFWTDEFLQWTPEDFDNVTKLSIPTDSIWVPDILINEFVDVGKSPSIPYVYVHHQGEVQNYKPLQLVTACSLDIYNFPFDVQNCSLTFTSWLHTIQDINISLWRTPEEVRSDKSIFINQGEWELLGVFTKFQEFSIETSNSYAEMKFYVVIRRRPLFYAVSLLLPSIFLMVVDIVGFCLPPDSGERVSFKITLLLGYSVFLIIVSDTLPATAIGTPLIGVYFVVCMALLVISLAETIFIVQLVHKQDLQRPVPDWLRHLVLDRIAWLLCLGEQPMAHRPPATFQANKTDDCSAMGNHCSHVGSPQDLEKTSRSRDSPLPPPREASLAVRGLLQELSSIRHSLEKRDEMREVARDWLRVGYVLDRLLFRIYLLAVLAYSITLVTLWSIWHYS

[11] = target: 5-hydroxytryptamine receptor 4 (Cavia porcellus, UniProt O70528)
[12] = target: 5-hydroxytryptamine receptor 2A (Rattus norvegicus, UniProt P14842)
[13] = target: T8, 5-hydroxytryptamine receptor 1A (Rattus norvegicus, UniProt P19327)
T8 sequence (P19327 whole entry): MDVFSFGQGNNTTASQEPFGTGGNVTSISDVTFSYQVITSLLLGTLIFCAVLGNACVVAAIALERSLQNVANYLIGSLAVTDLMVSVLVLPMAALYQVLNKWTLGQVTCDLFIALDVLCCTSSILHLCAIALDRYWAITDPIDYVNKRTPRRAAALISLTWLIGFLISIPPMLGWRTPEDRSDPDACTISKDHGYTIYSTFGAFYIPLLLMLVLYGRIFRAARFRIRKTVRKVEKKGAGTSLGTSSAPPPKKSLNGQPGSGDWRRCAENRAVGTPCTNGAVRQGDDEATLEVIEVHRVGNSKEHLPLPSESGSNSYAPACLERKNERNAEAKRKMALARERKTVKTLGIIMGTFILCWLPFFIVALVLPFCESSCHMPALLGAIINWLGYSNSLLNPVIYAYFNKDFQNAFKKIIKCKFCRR

[14] = target: T9, Alpha-2B adrenergic receptor (Rattus norvegicus, UniProt P19328)
T9 sequence (P19328 whole entry): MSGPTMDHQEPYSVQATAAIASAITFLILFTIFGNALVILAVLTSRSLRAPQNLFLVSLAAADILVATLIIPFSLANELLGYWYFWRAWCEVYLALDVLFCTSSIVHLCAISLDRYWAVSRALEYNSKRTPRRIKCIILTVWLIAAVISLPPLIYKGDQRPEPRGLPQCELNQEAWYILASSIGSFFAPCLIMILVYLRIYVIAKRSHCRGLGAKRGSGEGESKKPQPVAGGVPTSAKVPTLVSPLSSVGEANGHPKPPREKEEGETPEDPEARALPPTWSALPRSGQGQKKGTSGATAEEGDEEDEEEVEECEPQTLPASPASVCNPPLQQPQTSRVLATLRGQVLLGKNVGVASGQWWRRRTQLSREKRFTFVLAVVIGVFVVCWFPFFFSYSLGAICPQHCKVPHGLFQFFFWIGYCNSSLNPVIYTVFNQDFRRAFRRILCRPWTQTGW

Sigma non-opioid intracellular receptor 1, sequence (Q60492 whole entry): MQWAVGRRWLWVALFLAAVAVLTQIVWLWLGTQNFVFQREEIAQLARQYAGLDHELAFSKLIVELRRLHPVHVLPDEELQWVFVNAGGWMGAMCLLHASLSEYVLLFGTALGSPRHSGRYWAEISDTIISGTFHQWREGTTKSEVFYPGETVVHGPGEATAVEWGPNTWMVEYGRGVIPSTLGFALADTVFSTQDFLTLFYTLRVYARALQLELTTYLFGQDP
Beta-2 adrenergic receptor, sequence (P10608 whole entry): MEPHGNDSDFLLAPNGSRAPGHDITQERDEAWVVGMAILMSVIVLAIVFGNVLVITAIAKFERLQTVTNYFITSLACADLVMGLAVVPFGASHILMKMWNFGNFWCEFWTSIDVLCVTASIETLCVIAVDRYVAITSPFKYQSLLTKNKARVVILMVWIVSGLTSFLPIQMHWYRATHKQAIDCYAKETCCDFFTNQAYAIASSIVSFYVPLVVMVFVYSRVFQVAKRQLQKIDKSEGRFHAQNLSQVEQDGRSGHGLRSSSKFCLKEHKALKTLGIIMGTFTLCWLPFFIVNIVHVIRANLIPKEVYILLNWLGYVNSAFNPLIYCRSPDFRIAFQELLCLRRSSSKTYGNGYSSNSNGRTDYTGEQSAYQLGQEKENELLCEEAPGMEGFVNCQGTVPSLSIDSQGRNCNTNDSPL
5-hydroxytryptamine receptor 2A, sequence (P14842 whole entry): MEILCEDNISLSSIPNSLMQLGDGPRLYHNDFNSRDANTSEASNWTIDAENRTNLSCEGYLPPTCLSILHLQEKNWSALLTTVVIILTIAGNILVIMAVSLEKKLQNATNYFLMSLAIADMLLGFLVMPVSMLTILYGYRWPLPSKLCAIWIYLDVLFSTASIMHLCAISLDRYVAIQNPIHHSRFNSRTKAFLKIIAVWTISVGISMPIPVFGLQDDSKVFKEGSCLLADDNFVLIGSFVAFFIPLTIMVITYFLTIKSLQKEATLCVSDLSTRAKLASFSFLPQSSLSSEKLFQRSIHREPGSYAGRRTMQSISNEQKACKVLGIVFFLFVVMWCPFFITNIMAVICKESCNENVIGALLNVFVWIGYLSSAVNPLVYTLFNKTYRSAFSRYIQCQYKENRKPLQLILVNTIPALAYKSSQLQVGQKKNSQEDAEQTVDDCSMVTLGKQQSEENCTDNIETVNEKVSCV
Beta-1 adrenergic receptor, sequence (P18090 whole entry): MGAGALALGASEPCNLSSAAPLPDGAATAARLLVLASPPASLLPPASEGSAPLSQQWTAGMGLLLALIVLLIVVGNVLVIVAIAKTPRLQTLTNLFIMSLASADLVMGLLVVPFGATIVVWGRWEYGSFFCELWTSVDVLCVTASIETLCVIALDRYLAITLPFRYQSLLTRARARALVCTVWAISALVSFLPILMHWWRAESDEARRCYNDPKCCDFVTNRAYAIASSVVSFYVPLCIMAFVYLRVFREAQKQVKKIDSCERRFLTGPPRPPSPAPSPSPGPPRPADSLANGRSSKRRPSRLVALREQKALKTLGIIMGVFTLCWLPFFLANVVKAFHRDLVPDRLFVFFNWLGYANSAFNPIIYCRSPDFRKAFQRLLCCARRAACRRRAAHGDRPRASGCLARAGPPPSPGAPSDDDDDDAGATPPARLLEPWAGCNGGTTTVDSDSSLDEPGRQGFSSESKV
5-hydroxytryptamine receptor 4, sequence (O70528 whole entry): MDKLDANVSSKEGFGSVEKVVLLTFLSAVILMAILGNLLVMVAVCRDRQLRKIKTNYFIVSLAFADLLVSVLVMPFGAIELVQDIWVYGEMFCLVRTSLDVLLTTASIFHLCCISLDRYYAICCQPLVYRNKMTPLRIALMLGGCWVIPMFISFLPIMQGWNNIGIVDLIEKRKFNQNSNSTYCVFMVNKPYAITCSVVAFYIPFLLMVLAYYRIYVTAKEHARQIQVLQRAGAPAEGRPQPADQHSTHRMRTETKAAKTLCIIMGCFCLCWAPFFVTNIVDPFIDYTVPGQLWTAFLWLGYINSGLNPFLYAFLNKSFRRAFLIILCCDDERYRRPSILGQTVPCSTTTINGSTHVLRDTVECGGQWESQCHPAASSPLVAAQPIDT
D(1A) dopamine receptor, sequence (O77680 whole entry): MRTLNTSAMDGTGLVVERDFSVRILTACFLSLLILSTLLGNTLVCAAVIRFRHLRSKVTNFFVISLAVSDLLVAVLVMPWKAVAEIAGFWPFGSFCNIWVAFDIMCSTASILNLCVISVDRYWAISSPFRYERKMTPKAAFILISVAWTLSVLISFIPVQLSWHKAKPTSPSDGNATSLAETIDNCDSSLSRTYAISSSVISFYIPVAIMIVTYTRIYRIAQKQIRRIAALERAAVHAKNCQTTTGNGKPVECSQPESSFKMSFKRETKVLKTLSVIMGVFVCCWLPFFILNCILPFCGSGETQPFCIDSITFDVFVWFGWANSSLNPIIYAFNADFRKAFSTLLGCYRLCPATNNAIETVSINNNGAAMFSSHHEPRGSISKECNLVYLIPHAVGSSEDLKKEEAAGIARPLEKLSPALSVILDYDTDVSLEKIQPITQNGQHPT
D(2) dopamine receptor, sequence (F1SM69 whole entry): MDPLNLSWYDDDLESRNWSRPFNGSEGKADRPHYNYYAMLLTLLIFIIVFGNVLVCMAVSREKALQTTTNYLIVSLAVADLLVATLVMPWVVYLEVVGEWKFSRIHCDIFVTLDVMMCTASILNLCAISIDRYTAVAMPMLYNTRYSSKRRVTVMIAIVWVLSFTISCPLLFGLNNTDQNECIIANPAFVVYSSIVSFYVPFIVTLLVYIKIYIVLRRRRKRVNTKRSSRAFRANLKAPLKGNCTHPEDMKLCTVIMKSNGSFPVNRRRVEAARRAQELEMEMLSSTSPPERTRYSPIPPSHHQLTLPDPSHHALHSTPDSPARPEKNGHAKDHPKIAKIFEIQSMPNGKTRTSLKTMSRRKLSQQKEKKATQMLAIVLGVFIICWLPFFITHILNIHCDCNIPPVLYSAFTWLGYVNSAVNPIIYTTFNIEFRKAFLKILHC

Row | pKi (D(2) dopamine receptor) | pKi [1] | pKi [2] | pKi [3] | pKi (D(1A) dopamine receptor) | pKi [4] | pKi [5] | pKi [6] | pKi [7] | pKi [8] | pKi [9] | pKi [10] | pKi [11] | pKi [12] | pKi [13] | pKi [14] | Compound
1 | < 5.00 | < 5.00 | < 5.00 | < 5.00 | < 5.00 | 6.40 | < 5.00 | 7.90 and 7.30 | < 5.00 | 5.70 | < 5.00 | 5.60 and 5.90 | 8.80 | 6.00 | 5.70 | < 5.00 | COc1cc(N)c(Cl)cc1C(=O)CCC1CCN(CCNS(C)(=O)=O)CC1 [CAS_133075]
2 | < 5.00 | 5.30 | < 5.00 | 5.90 | < 5.00 | 6.70 | < 5.00 | 8.90 and 8.00 | 5.20 | 6.10 | < 5.00 | 6.40 and 5.90 | 8.70 | 6.30 | – | < 5.00 | CCCCN1CCC(CCC(=O)c2cc(Cl)c(N)cc2OC)CC1 [CAS_183782]
